Measured values from patent publication US20220152024A1, “COMBINATIONS USEFUL IN A METHOD FOR TREATING SARCOMA” (PTC THERAPEUTICS, INC., priority 2019, published 2022).
Entries after “also recorded” stand apart in the source; their conditions may differ. Like-named read-outs stand apart in the source and are kept apart here. Marks after values point to notes of the source that are not given here.

Columns and labels:
[1] = tested on: SK-LMS-1 human leiomyosarcoma tumors; format: in vivo
From the text: (§1) Leiomyosarcoma accounts for 5-10% of soft tissue sarcomas. Typically, leiomyosarcomas have a complex karyotype and are associated with p53 mutations (Yang J, Du X, Chen K, Ylipaa A, Lazar A J, Trent J, Lev D, Pollock R, Hao X, Hunt K, Zhang W. Genetic aberrations in soft tissue leiomyosarcoma. Cancer Lett. 2009 Mar. 8; 275(1):1-8). The cell line, SK-LMS-1 has a complex karyotype and a mutated p53 gene. Chemotherapy with doxorubicin-based drug regimens such as a combination of doxorubicin and ifosfamide is the standard of care. However, these regimens usually result in cardiotoxicity, rapid development of resistance, and no significant survival advantage. In a previous study utilizing the SK-LMS-1 model, Compound 1 (Cpd 1) was tested at a constant dose (12.5 mg/kg biw) in combination with varying doses/regimens of doxorubicin and gemcitabine. […] Here, SK-LMS-1 cells were passaged for a more extended time in vivo relative to the prior study generating a more aggressive tumor model. This study tested the efficacy of Cpd 1 alone and in combination with the chemotherapeutic agents Doxil and DTIC in the treatment of mice bearing SK-LMS-1 human leiomyosarcoma tumors.
(§2) A negative coefficient indicates greater inhibition in the combination group than expected based on the activity of the monotherapies. The more negative the coefficient, the greater the activity of the combination.
Tumors were ˜222 mm3 in volume when dosing was initiated. […] Interaction coefficients were determined using the AUCs of the Day 0 to Day 28 tumor volume vs day curves. To take into account the data after Day 28, interaction coefficients were calculated for the median time to reach 1000 mm^3. A negative interaction coefficient indicates synergy.
as §2

SK-LMS-1 model = assay: Previous study in the SK-LMS-1 model (doxorubicin, gemcitabine combinations); format: in vivo; conditions: Cpd 1 12.5 mg/kg biw with varying doses/regimens of doxorubicin and gemcitabine
From the text: as §1

[2] = tested on: SK-UT-1 leiomyosarcoma tumor cells; format: in vivo
Description: as §2
This study utilized SK-UT-1 leiomyosarcoma tumor cells implanted into the flank of athymic nude mice.
To compare tumor growth, the area under the curve comparing tumor volume vs day for each individual mouse was calculated and then averaged for each group.
Interaction coefficients were determined using the AUCs of the Day 0 to Day 25 tumor volume vs day curves. To take into account the data after Day 25, interaction coefficients were also calculated for the median time to reach 1000 mm3. A negative interaction coefficient indicates synergy.

[3] = Phase 1a clinical trial NCT02404480, safety, PK and response; format: in vivo, human; conditions: human, in vivo, 2.6 mg/kg, NCT02404480 PK profile, FIG. 6
Description: (§3) FIG. 5 summarizes the duration of Compound 1 treatment alone in an […] (AST) Phase 1a clinical trial (NCT02404480) of 31 evaluable patients to determine safety and pharmacokinetics. The initial human dose of 0.65 mg/kg was based on a rat model MTD of 40 mg/kg, with subsequent higher human dose ranging at 1.3 mg/kg, 2.6 mg/kg, 5.2 mg/kg, 7 mg/kg, and 10 mg/kg. The Standard 3+3 trial design, with 3 patients per cohort, allowed dose escalation for each cohort absent a dose-limiting toxicity (DLT), enabling the next cohort to be treated at the next higher dose. In the event any one patient in the cohort experienced a DLT at a particular dose, the next cohort would be treated at the same dose. A full pharmacokinetic review of each patient was taken on Day 1 and Day 29, with a partial review taken on Day 15.
(§4) NCT02404480: Phase 1 Study, open-label, first-in-human, evaluated safety and pharmacokinetic (PK) profile for use of Compound 1 in patients with advanced solid tumor (AST) cancers, determined the RP2D (recommended phase II clinical trial dose) according to escalating dose levels.
(§5) Compound 1 was administered as a […] in NCT02404480, a Phase 1a clinical trial designed to evaluate safety and PK profile for use of Compound 1 in patients with advanced solid tumor (AST) cancers.

[4] = tested on: advanced solid tumor (AST) cancers; assay: as above; format: in vivo, human; conditions: 31 evaluable patients; Compound 1 alone
Description: as §3, §4, §5

[5] = Exposure (AUC, Cmax) of Compound 1 in the mouse, free and total drug; conditions: in vivo, po
Description: (§6) In contrast to use of allometric conversion factors, FIGS. 6A-D summarize the pharmacokinetics of Compound 1 administration in humans, showing that a conversion factor for Compound 1 based on free drug in humans compared to free drug in mice can be derived to estimate the effective target AUC and Cmax, thus accounting for the differences in free drug between these species.
(§7) As shown by the dashed line, this predicts that the estimated dose in a human patient of about 2.0 mg/kg (biw) or higher of Compound 1 would be effective.

[6] = Predicted effective human dose from mouse exposure and measured human exposure (FIGS. 6A-D); format: in vivo; conditions: monotherapy, orally twice per week
From the text: FIGS. 6A-D summarize the pharmacokinetics of Compound 1 administered as a monotherapy in humans (as measured by AUCLast and Cmax) two times per week in the AST trial, wherein the dotted line in each figure indicates free drug concentration.
as §6, §7
As shown by the dashed line, this predicts that the estimated dose in a human patient of about 1.4 mg/kg (biw) or higher of Compound 1 would be effective.
As shown by the dashed line, this predicts that the estimated dose in a human patient of about 2.3 mg/kg (biw) or higher of Compound 1 would be effective.
As shown by the dashed line, this predicts that the estimated dose in a human patient of about 1.8 mg/kg (biw) or higher of Compound 1 would be effective.

Rat model MTD = conditions: in vivo
[7] = DTIC 4 mg/kg IP tiw, alone or with Cpd 1 12.5 mg/kg PO biw
[8] = DTIC 21 mg/kg IP qd5, alone or with Cpd 1 12.5 mg/kg PO biw
[9] = docetaxel 15 mg/kg IP QW6, alone or with Cpd 1 12.5 mg/kg
[10] = docetaxel 15 mg/kg IP qw6, alone or with Cpd 1 12.5 mg/kg biw6

Structure (SMILES): CN(C)/N=N/c1[nH]cnc1C(N)=O [DTIC, dacarbazine, reference compound]
- median time for tumor volume for individual mice to reach 1000 mm^3 [1, 7]: 19 days
- percent reduction in tumor volume at Day 28 (%) [1, 7]: 0%
- effect on tumor growth ([1]; DTIC 4 mg/kg IP tiw, alone or with Cpd 1 12.5 mg/kg biw): no activity
- median time for tumor volume for individual mice to reach 1000 mm^3 [1, 8]: 35 days
- percent reduction in tumor volume at Day 28 (%) [1, 8]: 74* %

Structure (SMILES): COc1cccc2c1C(=O)c1c(O)c3c(c(O)c1C2=O)C[C@@](O)(C(=O)CO)C[C@@H]3O[C@H]1C[C@H](N)[C@H](O)[C@H](C)O1 [Doxorubicin, doxorubicin]
- efficacy (SK-LMS-1 model): not active as a monotherapy or in combination with Cpd 1

Structure (SMILES): CC(=O)O[C@@]12CO[C@@H]1C[C@H](O)[C@@]1(C)C(=O)[C@H](O)C3=C(C)[C@@H](OC(=O)[C@H](O)[C@@H](NC(=O)OC(C)(C)C)c4ccccc4)C[C@@](O)([C@@H](OC(=O)c4ccccc4)[C@H]21)C3(C)C [docetaxel]
- effect on tumor growth ([2]; docetaxel 5 mg/kg IP BIW5.5, alone or with Cpd 1): no efficacy as a monotherapy
- percent reduction in tumor volume at Day 28 (%) ([2]; docetaxel 5 mg/kg IP biw5.5 (11 doses), alone or with Cpd 1 12.5 mg/kg biw6): 2.27%
- median time for tumor volume for individual mice to reach 1000 mm^3 ([2]; docetaxel 5 mg/kg IP biw5.5, alone or with Cpd 1 12.5 mg/kg biw6): 18.9 days
- effect on tumor growth ([2]; docetaxel 15 mg/kg IP QW6, alone or with Cpd 1): tumor growth was delayed; also recorded: more effective than Cpd 1
- inhibition vs vehicle at Day 25 [2, 9]: 78%
- mean tumor size at Day 25 [2, 9]: 1486 mm^3
- median time for tumor volume for individual mice to reach 1000 mm^3 (Days) [2, 10]: 50.1* Days
- percent reduction in tumor volume at Day 28 (%) [2, 10]: 77.8* %

Structure (SMILES): Cc1nc2ccc(F)cc2n1-c1nc(N)c(F)c(Nc2ccc(C(F)(F)F)cc2)n1 [Compound 1, 5-fluoro-2-(6-fluoro-2-methyl-1H-benzo[d]imidazol-1-yl)-N^4-[4-(trifluoromethyl)phenyl]pyrimidine-4,6-diamine]
- median time for tumor volume for individual mice to reach 1000 mm^3 ([1]; Cpd 1 12.5 mg/kg PO biw alone): 23 days
- percent reduction in tumor volume at Day 28 (%) ([1]; Cpd 1 12.5 mg/kg PO biw alone): 21%
- mean tumor volume on Day 32 ([1]; Cpd 1 12.5 mg/kg biw alone, all mice euthanized): 1607 mm^3
- mean tumor volume on Day 28 ([1]; Cpd 1 12.5 mg/kg biw alone, ~222 mm3 at start of dosing): 1388 mm3
- inhibition vs vehicle at Day 25 ([2]; Cpd 1 12.5 mg/kg BIW6 alone): 35%
- delay of the median time for tumor growth to reach 1000 mm^3 ([2]; Cpd 1 12.5 mg/kg BIW6 alone, vs vehicle): ~1.7 fold
- median time for tumor volume for individual mice to reach 1000 mm^3 ([2]; Cpd 1 12.5 mg/kg PO biw6 alone): 31.2 days
- percent reduction in tumor volume at Day 28 (%) ([2]; Cpd 1 12.5 mg/kg PO biw6 alone): 35.4* %
- mean tumor volume on Day 42 ([2]; Cpd 1 12.5 mg/kg alone, all mice euthanized): 1508 mm^3
- mean tumor volume on Day 25 ([2]; Cpd 1 12.5 mg/kg alone, ~163 mm^3 at start of dosing): 983 mm^3
- AUC(0-t) ([3]; read-out: target AUCLast): 13100 ng·h/mL
- Cmax ([3]; read-out: target Cmax): 679 ng/mL
- patients with a mixed/partial response [4]: 2/31
- patients with stable disease [4]: 5/31
- AUC ([5]; Dose in Mouse 10 mg/kg): 21000 ng·h/mL
- Cmax ([5]; Dose in Mouse 10 mg/kg): 1100 ng/mL
- AUC ([5]; Dose in Mouse 12.5 mg/kg): 26200 ng·h/mL
- Cmax ([5]; Dose in Mouse 12.5 mg/kg): 1380 ng/mL
- minimum effective amount for a 70 kg human subject, for Cmax ([6]; targeting free drug at 12.5 mg/kg in the mouse): about 124 mg
- minimum effective amount for a 70 kg human subject, for Cmax ([6]; targeting total drug at 12.5 mg/kg in the mouse): about 226 mg
- MTD (Rat model MTD): 40 mg/kg
